The values that follow come from patent publication EP0642348B1, “[…] PEPTIDES AND METHODS OF THEIR USE” (THE REGENTS OF THE UNIVERSITY OF CALIFORNIA, priority 1992, dated 2000).

No end group written: not given here.

The test system of test [1] is phoP mutant S. typhimurium. The following applies: compared to wild-type parent strains; Fields et al., Miller et al. 1990; cited from earlier work.
In test [2] the test system is isogenic phoP mutant of S. typhimurium (strain CS015 phoP102::Tn10d-Cam). Briefly: agar (plate) diffusion antibacterial assay, clear zones. It is filed as cell-based. To be noted: phoP mutant (attenuated, avirulent) S. typhimurium; modified plate diffusion assay; result in words, compared with wild-type. From the text: (§1) • Figure 1 provides the consensus structures of mouse cryptdins 1-5 and rat cryptdin-1. Amino acid residues are indicated by single-letter code. Dashed lines are included in mouse cryptdin-4 and rat cryptdin-1 in order to preserve the consensus sequence where these peptides are shorter than other cryptdins. Invariant residues in the enteric cryptdin peptides are boxed. […] Acid extract of jejunum and ileum was chromatographed in 30% acetic acid on a P-60 column. Fractions indicated by the bracket (panel A) were pooled and rechromatographed on the P-60 column (panel B). Cryptdin containing fractions (bracket, panel B) were pooled and further purified by RP-HPLC on 0.46 x 25 cm Vydac C-18 column. Water-acetonitrile gradient elution (--) using 0.13% (vol/vol) HFBA as modifier was used to purify cryptdins 1-5. […] Samples of low molecular weight enteric peptides obtained by P-60 gel filtration (Figure 2, [panel B]) and purified cryptdins were electrophoresed on a 12.5% acid-urea gel and stained with formalin-containing Coomassie Blue. […] After incubation at 37°C for 18 hours, antimicrobial activity was evaluated by measurement of the diameters of the clear zones. […]
(§2) The antimicrobial, or antibacterial, activity of cryptdins can be measured against various pathogens. […]

In test [3] the test system is wild-type Salmonella typhimurium (ATCC 10428). The test is described as above. It is filed as cell-based. The following applies: wild-type S. typhimurium; modified plate diffusion assay; result in words, compared with the phoP mutant.
Description: as §1, §2

As for “NP-1: rabbit defensin (VVCACRRALCLPRERRAGFCRIRGRIHPLCCRR; ends and bridges not checked; cysteine pairing not given here; UniProt P01376 63-95, looked up)”, in test [1], the “sensitivity of mutants in the phoP locus” value was “particularly sensitive”. The antimicrobial activity entry in test [2] and in test [3] was “quite similar” throughout.

With “NP-2: rabbit defensin (VVCACRRALCLPLERRAGFCRIRGRIHPLCCRR; ends and bridges not checked; cysteine pairing not given here; UniProt P01377 63-95, looked up)”, the “sensitivity of mutants in the phoP locus” value in test [1] is “particularly sensitive”.
